In patent US9498476B2, “Crystalline form of 6-[(4S)-2-methyl-4-(2-naphthyl)-1,2,3,4-tetrahydroisoquinolin-7-yl]pyridazin-3-amine” (Bristol-Myers Squibb Company, priority 2008, dated 2016):

Key:
Format in all cases: physicochemical
[1] = pH-Solubility profile (aqueous solubility)
[2] = Distribution coefficient (Log Do/b); details: pH 6.5
[3] = Solubility profile (USP definition) in solvents

CN1Cc2cc(-c3ccc(N)nn3)ccc2[C@H](c2ccc3ccccc3c2)C1 [Form N-1, 6-[(4S)-1,2,3,4-tetrahydro-2-methyl-4-(2-naphthalenyl)-7-isoquinolinyl]-3-pyridazinamine]
Aqueous solubility (in words) [1]: high aqueous solubility
Distribution coefficient Log Do/b [2]: 3.10
Solubility profile (USP definition) ([3]; acetone): slightly soluble: isopropanol, acetone, ethanol, methanol,
Solubility profile (USP definition) ([3]; acetonitrile): very slightly soluble: acetonitrile, ethyl acetate,
Solubility profile (USP definition) ([3]; dichloromethane): slightly soluble: isopropanol, acetone, ethanol, methanol,
Solubility profile (USP definition) ([3]; ethanol): slightly soluble: isopropanol, acetone, ethanol, methanol,
Solubility profile (USP definition) ([3]; ethyl acetate): very slightly soluble: acetonitrile, ethyl acetate,
Solubility profile (USP definition) ([3]; isopropanol): slightly soluble: isopropanol, acetone, ethanol, methanol,
Solubility profile (USP definition) ([3]; methanol): slightly soluble: isopropanol, acetone, ethanol, methanol,
Solubility profile (USP definition) ([3]; n-butanol): very slightly soluble: acetonitrile, ethyl acetate,
Solubility profile (USP definition) ([3]; propylene glycol): slightly soluble: isopropanol, acetone, ethanol, methanol,
